From patent US7388022B2, “Polysubstituted 1,1-pyridylaminocyclopropanamine compounds” (priority 2005, dated 2008) come the findings set out here.

Data set [1] has as its system object recognition (memorisation). Description: Object recognition in the Wistar rat. The data set is classed as in vivo. To be noted: 0.3 mg/kg PO, 2nd session 24 hours later. From the text:
The object recognition test in the Wistar rat (Behav. Brain Res., 1988, 31, 47-59) is based on the spontaneous exploratory activity of the animal and has the characteristics of episodic memory in humans. Sensitive to ageing (Eur. J. Pharmacol., 1997, 325, 173-180), as well as to cholinergic dysfunctions (Pharm. Biochem. Behav., 1996, 5(2), 277-283), this memory test is based on the differential exploration of 2 objects of fairly similar size, one familiar and the other new. Before the test, the animals are accustomed to the environment (enclosure without object). During a 1st session, the rats are placed (for 3 minutes) in an enclosure containing 2 identical objects. The duration of exploration of each object is measured. During the second session (3 minutes), 24 hours later, 1 of the 2 objects is replaced by a new object. The duration of exploration of each object is measured. The assessment criterion is the difference Delta, expressed in seconds, between the exploration times of the new object and the familiar object during the 2nd session.

Data set [2] deals with release of acetylcholine in the prefrontal cortex. The data set can be described thus: In vivo measurement of the release of acetylcholine by intra-cortical microdialysis in the conscious Wistar rat. Also noted: dose or concentration left out as unconfirmed. To be noted: one hour after administration. As for the experimental part:
The systemic administration of nicotine and nicotinic agonists causes an increase, in vivo, of acetylcholine in various regions of the brain (Neurochem. Res., 1996, 21, 1181-1186; Eur. J. Pharmacol., 1998, 351, 181-188; Br. J. Pharmacol., 1999, 127, 1486-1494). A microdialysis probe is implanted in the median prefrontal cortex of male Wistar rats. Six or seven days after they have been implanted, the probes are perfused with Ringer's solution (NaCl 147 mM, KCl 2.7 mM, CaCl2 1.2 mM, MgCl2 1 mM, neostigmine 20 nM) at a flow rate of 1 μl/min, the animal being free to move. After 2 hours in the animal quarters, the product under test is administered by the intraperitoneal route. A group of control animals receives the solvent used for the product. The dialysates (30 μl) are then collected every 30 minutes for 4 hours in order to measure the cortical extra-synaptic concentrations of acetylcholine by means of HPLC with amperometric detection. The results are expressed in pg of acetylcholine/dialysate, and inter-group comparisons are carried out by means of variance analysis using 2 factors (treatment×time), with measurements being repeated over time.

Data set [3] has as its target type α7 central nicotinic receptors (Rattus norvegicus, UniProt Q05941). Description: biochemical. The data set is classed as binding.
Data set [4] deals with abdominal cramps caused by PBQ. The data set can be described thus: Abdominal contractions induced by phenyl-p-benzoquinone (PBQ) in the NMRI mouse. Type of data set: in vivo. The conditions noted are these: 10 mg/kg IP. The protocol: Intraperitoneal administration of an alcoholic solution of PBQ causes abdominal cramps in the mouse (Proc. Soc. Exp. Biol., 1957, 95, 729-731). The cramps are characterised by repeated contractions of the abdominal musculature, accompanied by extension of the hind limbs. Most analgesics antagonise these abdominal cramps (Brit. J. Pharmacol. Chem., 1968, 32, 295-310). At t=0 min., the animals are weighed and the compound being studied is administered by the IP route. A group of control animals is given the solvent used for the compound. At t=30 min., an alcoholic solution of PBQ (0.2%) is administered by the IP route in a volume of 0.25 ml/mouse. Immediately after administration of the PBQ, the animals are placed in cylinders of plexiglass (L=19.5 cm; I.D.=5 cm). From t=35 min. to t=45 min., the animals' reaction is observed and the experimenter notes the total number of abdominal cramps per animal. The results are expressed as the percentage inhibition of the number of abdominal cramps measured in the control animals, at the active dose of the compound studied.

Data set [5] addresses T1, type α4β2 central nicotinic receptors (Rattus norvegicus, UniProt P09483+P12390).
T1 construct: from tissue; host or cells: rat brain membranes
The data set can be described thus: Displacement of binding of [3H]-cytisine on type α4β2 nicotinic receptors of rat brain. As for the experimental part:
This study, carried out according to the technique described in Molec. Pharmacol., 1990, 39; 9-12, is aimed at determining the affinity of compounds of the present invention for type α4β2 central nicotinic receptors.
Membranes (250 μg/ml) of rat brain are incubated (2 hours, 20° C.) in the presence of a series of concentrations (0.01-10 μM) of each compound of the present invention (diluted starting from a 10 mM stock solution in DMSO) and [^3H]-cytisine (S.A.: 1184 GBq/mmol: 2 nM) in phosphate buffer (NaH2PO4 20 mM, pH 7.4); final volume: 250 μl. The non-specific binding is determined by incubating membranes in the presence of 10 μM of (−)nicotine. The affinity of the compounds of the present invention for type α4β2 central nicotinic receptors is characterised by determination of the Ki.

Data set [6] has as its system social recognition (memorisation). Description: Social recognition in the Wistar rat. Type of data set: in vivo. The conditions noted are these: 3 mg/kg IP, 2 hours after administration. An excerpt: Initially described in 1982 (J. Comp. Physiol., 1982, 96, 1000-1006), the social recognition test has subsequently been proposed by various authors (Psychopharmacology, 1987, 91, 363-368; Psychopharmacology, 1989, 97, 262-268) for studying the mnemocognitive effects of new compounds. The test is based on the natural expression of the olfactory memory of the rat and its natural tendency to forget and allows evaluation of memorisation, by recognition of a young congeneric animal, by an adult rat. A young rat (21 days), taken at random, is placed for 5 minutes in the cage housing an adult rat. With the aid of a video device, the experimenter observes the social recognition behaviour of the adult rat and measures its overall duration. The young rat is then removed from the adult rat's cage and is placed in its own cage until the second introduction. The adult rat is given the compound under test by the intraperitoneal route and, after 2 hours, is again brought into the presence (5 minutes) of the young rat. The social recognition behaviour is then observed again and its duration measured. The assessment criterion is the difference (T2−T1), expressed in seconds, between the “recognition” times of the 2 encounters.

The term melting point denotes the temperature, or range, at which the solid turns liquid. As a reminder, the pKi is the negative decadic logarithm of the Ki, by convention in mol/L.

pKi: −log10 of the molar value. Counter-ions that a name gives are not always drawn. Like-named read-outs stand apart in the source and are kept apart here.

T1 sequence (P09483 31-630): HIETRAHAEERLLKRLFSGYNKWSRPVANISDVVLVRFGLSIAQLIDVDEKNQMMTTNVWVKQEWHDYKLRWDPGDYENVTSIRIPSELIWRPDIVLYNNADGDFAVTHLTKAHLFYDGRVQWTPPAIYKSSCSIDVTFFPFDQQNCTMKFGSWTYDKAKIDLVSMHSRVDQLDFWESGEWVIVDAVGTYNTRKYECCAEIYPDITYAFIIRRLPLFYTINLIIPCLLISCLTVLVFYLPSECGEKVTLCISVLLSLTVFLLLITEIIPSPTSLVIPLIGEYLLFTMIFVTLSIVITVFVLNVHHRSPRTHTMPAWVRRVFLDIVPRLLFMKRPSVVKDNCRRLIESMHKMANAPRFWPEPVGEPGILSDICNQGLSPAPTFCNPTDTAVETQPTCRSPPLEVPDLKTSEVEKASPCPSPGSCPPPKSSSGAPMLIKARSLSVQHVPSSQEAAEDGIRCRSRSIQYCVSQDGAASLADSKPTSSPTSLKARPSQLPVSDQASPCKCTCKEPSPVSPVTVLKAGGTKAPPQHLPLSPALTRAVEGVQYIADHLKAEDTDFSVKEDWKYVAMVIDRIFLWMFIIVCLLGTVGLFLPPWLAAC
T1 sequence (P12390 25-500): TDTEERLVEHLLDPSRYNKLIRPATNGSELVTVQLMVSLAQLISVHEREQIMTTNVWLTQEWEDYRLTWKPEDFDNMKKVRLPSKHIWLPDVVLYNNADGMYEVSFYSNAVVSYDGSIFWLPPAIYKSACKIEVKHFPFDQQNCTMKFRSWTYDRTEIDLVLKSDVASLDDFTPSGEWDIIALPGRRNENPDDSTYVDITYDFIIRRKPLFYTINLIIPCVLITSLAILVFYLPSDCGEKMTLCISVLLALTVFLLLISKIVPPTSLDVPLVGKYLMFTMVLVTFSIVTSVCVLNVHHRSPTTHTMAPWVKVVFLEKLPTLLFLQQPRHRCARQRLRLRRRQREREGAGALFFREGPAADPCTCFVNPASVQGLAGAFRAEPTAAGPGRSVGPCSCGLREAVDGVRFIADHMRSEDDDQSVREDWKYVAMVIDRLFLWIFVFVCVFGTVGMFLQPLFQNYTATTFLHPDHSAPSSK
type α7 central nicotinic receptors, sequence (Q05941 23-502): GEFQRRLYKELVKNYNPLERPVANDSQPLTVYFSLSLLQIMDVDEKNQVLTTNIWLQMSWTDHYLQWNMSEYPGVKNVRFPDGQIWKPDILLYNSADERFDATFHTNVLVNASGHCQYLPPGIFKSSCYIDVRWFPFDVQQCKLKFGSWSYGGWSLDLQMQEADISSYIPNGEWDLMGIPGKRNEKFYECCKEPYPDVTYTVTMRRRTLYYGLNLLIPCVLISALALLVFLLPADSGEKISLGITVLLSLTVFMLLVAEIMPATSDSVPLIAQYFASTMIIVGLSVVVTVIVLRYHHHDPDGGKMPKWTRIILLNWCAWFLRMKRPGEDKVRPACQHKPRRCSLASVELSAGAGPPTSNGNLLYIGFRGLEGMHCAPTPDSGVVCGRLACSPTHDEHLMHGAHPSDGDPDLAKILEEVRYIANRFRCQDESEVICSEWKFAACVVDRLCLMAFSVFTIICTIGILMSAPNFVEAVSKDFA

`CNC1(CN(C)c2cccnc2)CC1.Cl.Cl` [Example 2, N-Methyl-N-{[1-(methylamino)cyclopropyl]methyl}pyridin-3-amine dihydrochloride] had a melting point of 180 to 184 °C. Besides, in data set [1], the “difference Delta between exploration times of new and familiar object” value is 4 s. The “increase in the release of acetylcholine in the prefrontal cortex” value in data set [2] is given as “+80%”. Further, in data set [3], the pKi is 5.08. Further, in data set [4], the “reduction of the number of abdominal cramps caused by PBQ” value (from here on “reduction”) is −76%. The same compound had a pKi in data set [5] of 7.82. For the same compound, in data set [6], the “difference (T2−T1) between recognition times” value stood at 29 s.
`CN(C)C1(CNc2cccnc2)CC1.Cl.Cl` had a melting point of 208 to 210 °C.
Consider `Cl.Cl.NC1(CNc2cccnc2)CC1` [Example 4, N-[(1-Aminocyclopropyl)methyl]pyridin-3-amine dihydrochloride], for which the melting point lay within 195 to 199 °C. Moreover, the “difference (T2−T1) between recognition times” value in data set [6] was determined as 19 s.
For `CNC1(CNc2ccc(Cl)nc2)CC1.Cl.Cl` [Example 9], the “reduction” value in data set [4] is given as −52%.
The compound `CNC1(CN(C)c2ccc(Br)nc2)CC1.O=C(O)/C=C/C(=O)O` gave a melting point of 146 to 150 °C.
Still for that read-out and setting: for `CN(CC1(N(C)C)CC1)c1cccnc1.Cl.Cl` the value was 198 to 201 °C; for `CNC1(CN(Cc2ccccc2)c2ccc(Cl)nc2)CC1.Cl.Cl`, 156 to 157 °C.
On to `CNC1(CN(C)c2ccc(Cl)nc2)CC1` [Example 10, 6-Chloro-N-methyl-N-{[1-(methylamino)cyclopropyl)methylpyridin-3-aminedihydrochloride], for which, in data set [4], the “reduction” value is −69%. Also, the pKi in data set [5] ([3H]-cytisine, rat brain membranes, read-out: Ki, type α4β2 central nicotinic receptors) is 7.80.
Take `CNC1(CN(C)c2ccc(Cl)nc2)CC1` (as salt: hydrochloride) [Example 10, 6-Chloro-N-methyl-N-{[1-(methylamino)cyclopropyl)methylpyridin-3-aminedihydrochloride]: the melting point is 133 to 136 °C.
On to `CN(CC1(N)CC1)c1cccnc1.Cl.Cl`, for which the melting point is 218 to 222 °C.
`CN(C)C1(CNc2ccc(Cl)nc2)CC1.Cl.Cl` showed a melting point of 158 to 160 °C.
With `CNC1(CN(C)c2ccc(C)nc2)CC1.Cl.Cl`, the melting point is 112 to 115 °C.
On the same count and under the same terms, for `CNC1(CNc2ccc(C)nc2)CC1.Cl.Cl` the value was 230 to 232 °C; for `CN(CC1(N(C)C)CC1)c1ccc(Cl)nc1.Cl.Cl`, 163 to 166 °C.
In the case of `CNC1(CNc2cccnc2)CC1.Cl.Cl` [Example 1, N-{[1-(Methylamino)cyclopropyl]methyl}pyridin-3-amine dihydrochloride], the melting point is 190 to 195 °C. For the same compound, the “difference Delta between exploration times of new and familiar object” value in data set [1] turned out to be 9 s. Moreover, the “increase in the release of acetylcholine in the prefrontal cortex” value in data set [2] is listed as “+70%”. Moreover, the “reduction” value in data set [4] is recorded as −50%. This compound also showed a negative logarithm of the Ki (pKi) in data set [5] of 7.47. In data set [6], the “difference (T2−T1) between recognition times” value is given as 36 s.
The compound `CN(C)C1(CN(Cc2ccccc2)c2ccc(Cl)nc2)CC1.Cl` had a melting point of 190 to 192 °C.
